In patent publication US6747050B1, “Isoxazoline derivative and a process for the preparation thereof” (LG Chem Investment Ltd., priority 1999, dated 2004):
pKi: −log10 of the molar value.

Columns and labels:
[1] = test system: W138 cells (human embryonal lung fibroblast); assay: Protection from IFNγ and anti-Fas antibody-induced apoptosis (XTT); format: cell-based; details: IFNγ 200 units/ml + anti-Fas antibody 40 ng/well; for cell viability (control without Fas antibody = 100%): 50 μM, 50 µM; for viability at 0.4 µM / viability at 2 µM / viability at 10 µM / viability at 50 µM: Homo sapiens, read-out: cell viability (control without Fas antibody = 100%); for viability at 0.4 µM: W138, 0.4 μM; for viability at 2 µM: W138, 2 μM; for viability at 10 µM: W138, 10 μM; for viability at 50 µM: W138, 50 μM
Procedure: W138 cells (human embryonal lung fibroblast) were grown in a medium containing DMEM-10% FBS within, 10 cm diameter dishes until reaching at confluency. The cells were seeded into a 24-well plate at day 1 and incubated overnight while the volume of medium was maintained to 400 μl. Cells were treated with 200 units/ml of IFNγ at day 2 and incubated over 12 hrs or more. At day 3, each 100 μl of test compound was added to the cells after diluting the 10 mM stock compound in DMSO to final concentrations of 50, 10, 2, and 0.4 μM, respectively. The cells were incubated for 2 hrs in order for allowing the compound to enter into the cells and then treated with 40 ng/well of anti-Fas antibody(apoptosis was induced 2 hrs after antibody was treated and the incubation was continued overnight). The control was not treated with Fas antibody. […] After coloring, 100-200 μl of the supernatant was transferred to a 96-well plate and the absorbance at 490 nm was read with ELISA plate reader. For the blank, XTT solution was added to the well continued the medium only. Plotting was determined by comparing with the control group (100% when Fas antibody was not treated).

caspase-1 = target: T1, caspase-1 (Homo sapiens, UniProt P29466); assay: Recombinant caspase enzyme inhibition, fluorogenic substrate Ac-YVAD-AMC; format: biochemical; details: Reversible Inhibitor
T1 construct: made in house; host or cells: transformed bacterium (pET vector)
T1 sequence (P29466 120-297 limits assumed): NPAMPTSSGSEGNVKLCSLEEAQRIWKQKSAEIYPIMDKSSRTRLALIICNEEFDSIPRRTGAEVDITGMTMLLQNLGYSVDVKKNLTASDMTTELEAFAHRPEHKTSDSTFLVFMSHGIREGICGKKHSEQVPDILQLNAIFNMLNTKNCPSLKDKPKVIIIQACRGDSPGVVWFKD
T1 sequence (P29466 317-404 limits assumed): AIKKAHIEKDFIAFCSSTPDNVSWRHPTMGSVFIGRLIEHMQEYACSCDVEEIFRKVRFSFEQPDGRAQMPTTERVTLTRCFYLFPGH
Procedure: In the present experiment recombinant caspases were purified from a transformed bacterium after human caspase genes were cloned into the expression vector pET, and then used in the experiment (Thornberry, N. A. et al. Nature, 1992, 356, 768. Thornberry, N. A. Methods in Enzymology, 1994, 615.).
Enzymatic activity was measured by a known procedure (Walker N. P. C. et al., Cell 1994, 78, 343). Briefly, 10 ng of recombinant protein was mixed with 50 mM Tris(pH 7.0), 1 mM DTT, 0.5 mM EDTA, 10% Glycerol buffer containing 1˜100 μM of enzyme substrate, Ac-YVAD-AMC or Ac-DEVD-AMC and then the changes by isolated AMC at 37° C. were recorded. The inhibitory activity for caspases was calculated from the early enzyme reaction rate by measuring the changes with fluorescence excited at […] and emitted at 460 nm (Range; Ki<100 nM).

[2] = test system: caspase-3-like activity (Ac-DEVD-pNA); assay: Caspase-3-like activity in TNFα/ActD-treated primary rat hepatocytes; format: cell-based; details: 100 μM, 8 hrs
Procedure: Primary rat hepatocytes were isolated and purified from male Sprague-Dawley rats using a collagenase digestion method. The hepatocytes were purified over 30% Percoll gradient by centrifugation at 1,000×g for 10 min. at 4° C. […] The cells were plated on collagen-coated tissue culture plates at a density of 2×10^5 cells/well in 12-well plates for cell viability analysis or 5×10^6 cells/100 mm dish for enzyme assays. After 18 hrs preculture, the cells were treated with 2,000 units/ml TNFα and 0.2 μg/ml Actinomycin (ActD). Caspase activity and cell viability was determined by colorimetry using a caspase substrate Ac-DEVD-pNA and crystal violet staining method at 8 hrs and 12 hrs, respectively.

With `CC(=O)[C@H](CC(=O)O)NC(=O)C1(COc2ccccc2)CC([C@@H](NC(=O)c2ccc3ccccc3n2)C(C)C)=NO1` (mixture of isomers) [Compound 22, (3S)-3-{3-[(1S)-1-(Quinoline-2-yl-carbonylamino)-2-methyl-propyl]-5-phenoxymethyl-4,5-dihydro-isoxazole-5-carbonylamino}-4-keto-pentanoic Acid] the “cell viability (control without Fas antibody = 100%)” value [1] was 78.29%, the viability at 0.4 µM [1] was 14.4% and the viability at 2 µM [1] was 18.3%. It also gave a viability at 10 µM [1] of 35.4% and a viability at 50 µM [1] of 78%.

Compound `CC1(C(=O)N[C@@H](CC(=O)O)C(=O)COc2ccccc2)CC([C@H](CCC(=O)O)NC(=O)CCC(=O)O)=NO1` (mixture of isomers) [Compound 46, (3S)-3-{3-[(1S)-1-(Succinoylamino)-3-carboxy-propyl]-5-methyl-4,5-dihydro-isoxazole-5-carbonylamino}-4-keto-5-phenoxy-pentanoic Acid] has a pKi (caspase-1) of 7.54.

`CC(C)[C@H](NC(=O)CCC(=O)O)C1=NOC(C)(C(=O)N[C@@H](CC(=O)O)C(=O)COc2ccccc2)C1` (mixture of isomers) [Compound 47, (3S)-3-{3-[2-Methyl-(1S)-1-(succinoylamino)-propyl]-5-methyl-4,5-dihydro-isoxazole-5-carbonylamino}-4-keto-5-phenoxy-pentanoic Acid] was tested, and the pKi (caspase-1) was 6.75.

In the case of `CCCC1(C(=O)N[C@@H](CC(=O)O)C(=O)COc2ccccc2)CC([C@@H](NC(=O)CCC(=O)O)C(C)C)=NO1` (mixture of isomers) [Compound 83, (3S)-3-{3-[2-Methyl-(1S)-1-(succinoylamino)-propyl]-5-propyl-4,5-dihydro-isoxazole-5-carbonylamino}-4-keto-5-phenoxy-pentanoic Acid], the pKi (caspase-1) was 6.01.

For `CC(C)[C@H](NC(=O)CCC(=O)O)C1=NOC(C)(C(=O)N[C@@H](CC(=O)O)C(=O)COc2ccc3ccccc3c2)C1` (single isomer, unassigned) [Compound 81], the pKi (caspase-1) was 4.57.

Work on `CC(C)[C@H](NC(=O)CCC(=O)O)C1=NOC(C)(C(=O)N[C@@H](CC(=O)O)C(=O)COc2ccc3ccccc3c2)C1` (single isomer, unassigned) [Compound 82] yielded a pKi (caspase-1) of 6.28.

For `CC(=O)N[C@@H](CC(=O)O)C(=O)N[C@@H](CCC(=O)O)C(=O)N[C@H](C(=O)N[C@H](C=O)CC(=O)O)C(C)C` [Ac-DEVD-CHO], the “caspase-3-like activity increased by TNFα/ActD (FIG. 15A)” value [2] was “not different”.

With `CC(C)[C@H](NC(=O)c1ccc2ccccc2c1)C1=NOC(Cc2ccccc2)(C(=O)N[C@@H](CC(=O)O)C(=O)COC(=O)c2c(Cl)cccc2Cl)C1` (stereo partly drawn) [Compound 28, (3S)-3-{3-[(1S)-1-(Naphthalene-2-carbonylamino)-2-methyl-propyl]-5-phenylmethyl-4,5-dihydro-isoxazole-5-carbonylamino}-4-keto-5-(2,6-dichlorobenzoyloxy)-pentanoic Acid] the “cell viability (control without Fas antibody = 100%)” value [1] was 90.39%, the viability at 0.4 µM [1] was 14.7% and the viability at 2 µM [1] was 17.3%. For the same compound, the viability at 10 µM [1] was 82.4% and the viability at 50 µM [1] was 90%.

`CC(C)[C@H](NC(=O)c1ccc2ccccc2c1)C1=NOC(C(=O)N[C@@H](CC(=O)O)C(=O)COc2ccc3ccccc3c2)C1` (stereo partly drawn) [Compound 29, (3S)-3-{3-[(1S)-1-(Naphthalene-2-carbonylamino)-2-methyl-propyl]-4,5-dihydro-isoxazole-5-carbonylamino}-4-keto-5-(2-naphthyloxy)-pentanoic Acid] gave a pKi (caspase-1) of 9.49.

`CC(C)[C@H](NC(=O)c1ccc2ccccc2c1)C1=NOC(C(=O)N[C@@H](CC(=O)O)C(=O)COc2ccccc2)C1` (stereo partly drawn) [Compound 30, (3S)-3-{3-[2-Methyl-(1S)-1-(2-naphthalenecarbonylamino)-propyl]-4,5-dihydro-isoxazole-5-carbonylamino}-4-keto-5-phenoxy-pentanoic Acid] showed a pKi (caspase-1) of 7.72.

With `CC(C)[C@H](NC(=O)c1cccc2ccccc12)C1=NOC(Cc2ccccc2)(C(=O)N[C@@H](CC(=O)O)C(=O)CN2CCCCC2)C1` (stereo partly drawn) [Compound 48, (3S)-3-{3-[2-Methyl-(1S)-1-(1-naphtalenycarbonylamino)-propyl]-5-phenylmethyl-4,5-dihydro-isoxazole-5-carbonylamino}-4-keto-5-(1-piperidinyl)-pentanoic Acid] the pKi (caspase-1) was 8.82.

`CC(C)[C@H](NC(=O)CCC(=O)O)C1=NOC(C)(C(=O)N[C@@H](CC(=O)O)C(=O)CN2CCCC2)C1` (stereo partly drawn) [Compound 78, (3S)-3-{3-[2-methyl-(1S)-1-(succinoylamino)-propyl]-5-methyl-4,5-dihydro-isoxazole-5-cabonylamino}-4-keto-5-(N-pyrrolidine)-pentanoic acid] showed a pKi (caspase-1) of 4.19.
